# Earlier results in patent CN104546722A, “米铂脂质体和制法” (priority 2015, dated 2015).
# Where two headings read alike, the source gives them in different places.
# Key:
# [1] = tested on: hepatocellular carcinoma patients (肝细胞癌患者)
# [2] = tested on: liver cancer patients (肝癌患者)
# [3] = tested on: human liver cancer cell line Li-7 (人肝癌细胞株Li-7)
# [4] = tested on: hepatocellular carcinoma (肝细胞癌)
# [5] = after administration
# [6] = tested on: rodent liver cancer cell line AH109A (鼠肝癌细胞株AH109A)
# [7] = tested on: hepatocellular carcinoma patients (肝细胞癌患者); details: human, in vivo
# [8] = tested on: hepatocellular carcinoma patients (肝细胞癌患者); details: human, in vivo; remark: listed apart in the source
# [9] = not given; remark: listed apart in the source
smiles,measurement,setting,value
"CCCCCCCCCCCCCC(=O)[O-].CCCCCCCCCCCCCC(=O)[O-].N[C@@H]1CCCC[C@H]1N.[Pt+2] [米铂, 顺-[(1R,2R)-1,2-环己二胺-N,N’]双十四酰氧基合铂]",TEV (disappearance of mass or 100% tumour necrosis rate),[1]; 22/83 patients,26.5%
same,hepatic vascular injury,[1]; from administration,未发生肝血管损伤
same,2-year survival rate,"[1]; human, in vivo",75.9%
same,3-year survival rate,"[1]; human, in vivo",58.4%
same,CR rate,[2]; 9/16 patients,56%
same,tolerability,[2]; 16 patients,耐受性好
"CCCCCCCCCCCCCC(=O)[O-].CCCCCCCCCCCCCC(=O)[O-].N[C@@H]1CCCC[C@H]1N.O.[Pt+2] [米铂一水合物, (SP-4-2)-[(1R,2R)-1,2环己二氨-N,N′]二(十四酸-O)合铂一水合物]",tumour cell proliferation rate,[3]; 20 mg/mL in suspension,明显降低
same,antitumour effect,[3]; single dose of suspension,剂量相关地抗肿瘤作用
same,inhibition of cancer cell proliferation,[3]; suspension,以剂量相关方式抑制癌细胞增殖
same,time to disappearance of adverse reactions,"[4]; almost all, after administration",4~6 weeks
same,"CR rate (therapeutic effect, TE)",[4]; hepatocellular carcinoma,60%
same,total platinum concentration in blood,[5],"极低,可长时间维持"
same,tumour cell proliferation rate,[6]; 20 mg/mL in suspension,明显降低
same,antitumour effect,[6]; single dose of suspension,剂量相关地抗肿瘤作用
same,inhibition of cancer cell proliferation,[6]; suspension,以剂量相关方式抑制癌细胞增殖
same,"Cmax, reduced to",about 1 year after administration,~17%
same,total platinum concentration in blood (level),"after administration, (ng)","极低,属微量且维持时间长"
same,1-year survival rate,[7],90.1%
same,2-year survival rate,[7],75.9%
same,3-year survival rate,[7],58.4%
same,efficacy compared with 净司他丁斯酯,[7],疗效相当
same,safety compared with 净司他丁斯酯,[7],更安全
same,1-year survival rate,[8],63.6%
same,2-year survival rate,[8],38.2%
same,total platinum mass concentration in blood (mean),[9]; after first administration,9.6 ng/mL
same,total platinum mass concentration in blood (mean),[9]; after second administration,12.9 ng/mL
